From PubChem BioAssay (NCI)
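Values below derive from 48-hour exposures of cells grown in 96-well plates, with endpoints linearly interpolated between the two concentrations bracketing the appropriate inhibition level. At the GI50, growth is halved. TGI marks complete inhibition of growth.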

Experiments:
Assay in all cases: NCI anticancer screen, dose series, 48 h
786-0 renal = system: 786-0 renal
A498 renal = system: A498 renal
A549 NSCLC = system: A549 NSCLC
ACHN renal = system: ACHN renal
BT-549 breast = system: BT-549 breast
CAKI-1 renal = system: CAKI-1 renal
CCRF-CEM leukemia = system: CCRF-CEM leukemia
COLO 205 colon = system: COLO 205 colon
DU-145 prostate = system: DU-145 prostate
EKVX NSCLC = system: EKVX NSCLC
HCC-2998 colon = system: HCC-2998 colon
HCT-116 colon = system: HCT-116 colon
HCT-15 colon = system: HCT-15 colon
HL-60(TB) leukemia = system: HL-60(TB) leukemia
HOP-62 NSCLC = system: HOP-62 NSCLC
HOP-92 NSCLC = system: HOP-92 NSCLC
HS 578T breast = system: HS 578T breast
HT29 colon = system: HT29 colon
IGROV1 ovarian = system: IGROV1 ovarian
K-562 leukemia = system: K-562 leukemia
KM12 colon = system: KM12 colon
LOX IMVI melanoma = system: LOX IMVI melanoma
M14 melanoma = system: M14 melanoma
MCF7 breast = system: MCF7 breast
MDA-MB-231 breast = system: MDA-MB-231 breast
MDA-MB-435 = system: MDA-MB-435
MOLT-4 leukemia = system: MOLT-4 leukemia
NCI-H226 lung = system: NCI-H226 lung
NCI-H23 lung = system: NCI-H23 lung
NCI-H460 lung = system: NCI-H460 lung
NCI/ADR-RES ovarian = system: NCI/ADR-RES ovarian
OVCAR-3 ovarian = system: OVCAR-3 ovarian
OVCAR-4 ovarian = system: OVCAR-4 ovarian
OVCAR-5 ovarian = system: OVCAR-5 ovarian
OVCAR-8 ovarian = system: OVCAR-8 ovarian
PC-3 prostate = system: PC-3 prostate
RXF 393 renal = system: RXF 393 renal
SF-268 CNS = system: SF-268 CNS
SF-295 CNS = system: SF-295 CNS
SF-539 CNS = system: SF-539 CNS
SK-MEL-2 melanoma = system: SK-MEL-2 melanoma
SK-MEL-28 melanoma = system: SK-MEL-28 melanoma
SK-MEL-5 melanoma = system: SK-MEL-5 melanoma
SK-OV-3 ovarian = system: SK-OV-3 ovarian
SN12C renal = system: SN12C renal
SNB-19 CNS = system: SNB-19 CNS
SNB-75 CNS = system: SNB-75 CNS
SR leukemia = system: SR leukemia
SW-620 colon = system: SW-620 colon
T-47D breast = system: T-47D breast
TK-10 renal = system: TK-10 renal
U251 CNS = system: U251 CNS
UACC-257 melanoma = system: UACC-257 melanoma
UACC-62 melanoma = system: UACC-62 melanoma
UO-31 renal = system: UO-31 renal
NCI-H522 lung = system: NCI-H522 lung
RPMI-8226 leukemia = system: RPMI-8226 leukemia

## COc1cc(-c2nn(-c3ccc(NC(=O)Nc4ccc(Cl)c(Cl)c4)cc3)cc2-c2ccncc2)ccc1Cl
786-0 renal
  GI50: 2.4 µM
  TGI: 5.43 µM
A498 renal
  GI50: 2 µM
  TGI: 8.27 µM
A549 NSCLC
  GI50: 3.58 µM
  TGI: > 100 µM
ACHN renal
  GI50: 3.35 µM
  TGI: > 100 µM
BT-549 breast
  GI50: 3.35 µM
  TGI: 11.2 µM
CAKI-1 renal
  GI50: 2.59 µM
  TGI: 7.68 µM
CCRF-CEM leukemia
  GI50: 3.16 µM
  TGI: > 100 µM
COLO 205 colon
  GI50: 1.97 µM
  TGI: 4.2 µM
DU-145 prostate
  GI50: 4.33 µM
  TGI: 69.7 µM
EKVX NSCLC
  GI50: 2.61 µM
  TGI: 15.3 µM
HCC-2998 colon
  GI50: 2.62 µM
  TGI: 7.65 µM
HCT-116 colon
  GI50: 3.08 µM
  TGI: 11 µM
HCT-15 colon
  GI50: 2.88 µM
  TGI: 14.1 µM
HL-60(TB) leukemia
  GI50: 3.55 µM
  TGI: > 100 µM
HOP-62 NSCLC
  GI50: 3.79 µM
  TGI: 22.3 µM
HOP-92 NSCLC
  GI50: 2.35 µM
  TGI: 11.9 µM
HS 578T breast
  GI50: 3.22 µM
  TGI: 11.9 µM
HT29 colon
  GI50: 3.52 µM
  TGI: 17.1 µM
IGROV1 ovarian
  GI50: 4.88 µM
  TGI: > 100 µM
K-562 leukemia
  GI50: 3.51 µM
  TGI: > 100 µM
KM12 colon
  GI50: 2.62 µM
  TGI: 7.41 µM
LOX IMVI melanoma
  GI50: 1.98 µM
  TGI: 4.75 µM
M14 melanoma
  GI50: 2.56 µM
  TGI: 6.87 µM
MCF7 breast
  GI50: 3.35 µM
  TGI: > 100 µM
MDA-MB-231 breast
  GI50: 2.62 µM
  TGI: 7.7 µM
MDA-MB-435
  GI50: 2.87 µM
  TGI: 8.8 µM
MOLT-4 leukemia
  GI50: 3.27 µM
  TGI: > 100 µM
NCI-H226 lung
  GI50: 4.19 µM
  TGI: 69.1 µM
NCI-H23 lung
  GI50: 3.26 µM
  TGI: 32.3 µM
NCI-H460 lung
  GI50: 2.42 µM
  TGI: 5.64 µM
NCI/ADR-RES ovarian
  GI50: 3.24 µM
  TGI: > 100 µM
OVCAR-3 ovarian
  GI50: 3.02 µM
  TGI: 8.63 µM
OVCAR-4 ovarian
  GI50: 4.41 µM
  TGI: > 100 µM
OVCAR-5 ovarian
  GI50: 2.54 µM
  TGI: > 100 µM
OVCAR-8 ovarian
  GI50: 3.49 µM
  TGI: > 100 µM
PC-3 prostate
  GI50: 2.89 µM
  TGI: > 100 µM
RXF 393 renal
  GI50: 2.16 µM
  TGI: 7.49 µM
SF-268 CNS
  GI50: 4.57 µM
  TGI: > 100 µM
SF-295 CNS
  GI50: 1.82 µM
  TGI: 4.4 µM
SF-539 CNS
  GI50: 2.89 µM
  TGI: 33.6 µM
SK-MEL-2 melanoma
  GI50: 3.44 µM
  TGI: 39.7 µM
SK-MEL-28 melanoma
  GI50: 3.94 µM
  TGI: 17.9 µM
SK-MEL-5 melanoma
  GI50: 2.48 µM
  TGI: 8.29 µM
SK-OV-3 ovarian
  GI50: 3.96 µM
  TGI: > 100 µM
SN12C renal
  GI50: 3.96 µM
  TGI: > 100 µM
SNB-19 CNS
  GI50: 5.29 µM
  TGI: > 100 µM
SNB-75 CNS
  GI50: 2.13 µM
  TGI: 9.75 µM
SR leukemia
  GI50: 3.77 µM
  TGI: > 100 µM
SW-620 colon
  GI50: 4.3 µM
  TGI: 19.4 µM
T-47D breast
  GI50: 3.02 µM
  TGI: 54.6 µM
TK-10 renal
  GI50: 6.5 µM
  TGI: > 100 µM
U251 CNS
  GI50: 2.84 µM
  TGI: 15.1 µM
UACC-257 melanoma
  GI50: 3.17 µM
  TGI: 23.5 µM
UACC-62 melanoma
  GI50: 3.35 µM
  TGI: 13.3 µM
UO-31 renal
  GI50: 2.74 µM
  TGI: 11.3 µM

## COc1cc(-c2n/c(=C\c3c(O)[nH]c4ccc(Cl)cc34)cc3c2=Nc2ccccc2-3)cc(OC)c1OC
A498 renal
  GI50: 1.76 µM
  TGI: 4.71 µM
ACHN renal
  GI50: 0.449 µM
  TGI: 1.65 µM
BT-549 breast
  GI50: 2.43 µM
  TGI: 7.45 µM
CAKI-1 renal
  GI50: 1.97 µM
  TGI: 6.72 µM
CCRF-CEM leukemia
  GI50: 0.849 µM
  TGI: 37.3 µM
COLO 205 colon
  GI50: 1.35 µM
  TGI: 3.81 µM
DU-145 prostate
  GI50: 0.655 µM
  TGI: 2.59 µM
EKVX NSCLC
  GI50: 3.59 µM
  TGI: 18.7 µM
HCC-2998 colon
  GI50: 2.98 µM
  TGI: 11 µM
HCT-116 colon
  GI50: 0.232 µM
  TGI: 0.595 µM
HCT-15 colon
  GI50: 1.56 µM
  TGI: 8.44 µM
HL-60(TB) leukemia
  GI50: 10.7 µM
  TGI: 38.1 µM
HOP-62 NSCLC
  GI50: 0.383 µM
  TGI: 0.783 µM
HOP-92 NSCLC
  GI50: 1.32 µM
  TGI: 3.32 µM
HS 578T breast
  GI50: 2.29 µM
  TGI: 8.31 µM
HT29 colon
  GI50: 1.04 µM
  TGI: 2.96 µM
IGROV1 ovarian
  GI50: 0.685 µM
  TGI: 4.09 µM
K-562 leukemia
  GI50: 0.728 µM
  TGI: 10.1 µM
KM12 colon
  GI50: 1.72 µM
  TGI: 5.61 µM
LOX IMVI melanoma
  GI50: 0.501 µM
  TGI: 1.89 µM
M14 melanoma
  GI50: 1.43 µM
  TGI: 3.02 µM
MCF7 breast
  GI50: 0.316 µM
  TGI: 1.38 µM
MDA-MB-231 breast
  GI50: 1.47 µM
  TGI: 3.12 µM
MDA-MB-435
  GI50: 2.08 µM
  TGI: 5.15 µM
MOLT-4 leukemia
  GI50: 0.679 µM
  TGI: 3.64 µM
NCI-H226 lung
  GI50: 3 µM
  TGI: 12 µM
NCI-H23 lung
  GI50: 1.05 µM
  TGI: 3.85 µM
NCI-H522 lung
  GI50: 1.79 µM
  TGI: 4.09 µM
NCI/ADR-RES ovarian
  GI50: 2.01 µM
  TGI: 7.55 µM
OVCAR-3 ovarian
  GI50: 0.417 µM
  TGI: 1.53 µM
OVCAR-4 ovarian
  GI50: 0.423 µM
  TGI: 1.78 µM
OVCAR-5 ovarian
  GI50: 5.15 µM
  TGI: 16.9 µM
PC-3 prostate
  GI50: 1.82 µM
  TGI: 5.92 µM
RPMI-8226 leukemia
  GI50: 2.68 µM
  TGI: 19.7 µM
RXF 393 renal
  GI50: 1.63 µM
  TGI: 3.33 µM
SF-268 CNS
  GI50: 1.6 µM
  TGI: 3.95 µM
SF-295 CNS
  GI50: 3.31 µM
  TGI: 10.2 µM
SF-539 CNS
  GI50: 2.32 µM
  TGI: 4.91 µM
SK-MEL-2 melanoma
  GI50: 2.21 µM
  TGI: 4.9 µM
SK-MEL-28 melanoma
  GI50: 2.04 µM
  TGI: 4.41 µM
SK-MEL-5 melanoma
  GI50: 1.83 µM
  TGI: 5.63 µM
SK-OV-3 ovarian
  GI50: 2.16 µM
  TGI: 4.79 µM
SN12C renal
  GI50: 0.754 µM
  TGI: 2.36 µM
SNB-19 CNS
  GI50: 1.18 µM
  TGI: 3.84 µM
SNB-75 CNS
  GI50: 1.72 µM
  TGI: 4.84 µM
SR leukemia
  GI50: 0.445 µM
  TGI: 4.8 µM
SW-620 colon
  GI50: 0.366 µM
  TGI: 1.6 µM
T-47D breast
  GI50: 1.28 µM
  TGI: 3.21 µM
TK-10 renal
  GI50: 1.5 µM
  TGI: 3.2 µM
UACC-62 melanoma
  GI50: 1.8 µM
  TGI: 3.42 µM
UO-31 renal
  GI50: 1.29 µM
  TGI: 2.72 µM
